Source: publication PMC4468940, “Glucose-tolerant β-glucosidase retrieved from a Kusaya gravy metagenome” (Frontiers in Microbiology, 2015)

Tested on: T1, Ks5A7
T1 construct: full length, 452 aa, 52,509 Da (53,573 Da tagged), C-terminal 6xHis tag (pET29b, primer-encoded LE linker) kept; E. coli Rosetta (DE3); ~160 kDa by gel filtration; GH1; N-terminus from primer MMKFNENFVWG, C-terminus IEENGENL; silent NdeI site removal
Assay: p-nitrophenol release, […] nm, initial rates
Assay type: biochemical, metagenome (uncultured bacterium, Kusaya gravy)
Details: McIlvaine buffer pH 5.5, 45°C, no glucose added

| Km [µM] | SMILES |
| --- | --- |
| 152 ± 4 | C[C@H]1O[C@@H](Oc2ccc([N+](=O)[O-])cc2)[C@H](O)[C@@H](O)[C@H]1O [pNPFuc] |
| 78 ± 2 | O=[N+]([O-])c1ccc(O[C@@H]2O[C@H](CO)[C@@H](O)[C@H](O)[C@H]2O)cc1 [pNPGlc] |

Tested on: T1, Ks5A7
Assay: released glucose, Amplex Red glucose oxidase assay
Assay type: biochemical, metagenome (uncultured bacterium, Kusaya gravy)
Details: McIlvaine buffer pH 5.5, 45°C
Text: released glucose, Amplex Red glucose oxidase assay on Ks5A7

| Km [µM] | SMILES |
| --- | --- |
| 358 ± 55 | OC[C@H]1O[C@@H](O[C@H]2[C@H](O)[C@@H](O)C(O)O[C@@H]2CO)[C@H](O)[C@@H](O)[C@@H]1O (stereo partly drawn) [Cellobiose] |
| 132 ± 11 | OC[C@H]1O[C@@H](O[C@H]2[C@H](O)[C@@H](O)[C@H](O[C@H]3[C@H](O)[C@@H](O)[C@H](O[C@H]4[C@H](O)[C@@H](O)[C@H](O[C@H]5[C@H](O)[C@@H](O)C(O)O[C@@H]5CO)O[C@@H]4CO)O[C@@H]3CO)O[C@@H]2CO)[C@H](O)[C@@H](O)[C@@H]1O (stereo partly drawn) [Cellopentaose] |
| 160 ± 12 | OC[C@H]1O[C@@H](O[C@H]2[C@H](O)[C@@H](O)[C@H](O[C@H]3[C@H](O)[C@@H](O)[C@H](O[C@H]4[C@H](O)[C@@H](O)C(O)O[C@@H]4CO)O[C@@H]3CO)O[C@@H]2CO)[C@H](O)[C@@H](O)[C@@H]1O (stereo partly drawn) [Cellotetraose] |
| 163 ± 16 | OC[C@H]1O[C@@H](O[C@H]2[C@H](O)[C@@H](O)[C@H](O[C@H]3[C@H](O)[C@@H](O)C(O)O[C@@H]3CO)O[C@@H]2CO)[C@H](O)[C@@H](O)[C@@H]1O (stereo partly drawn) [Cellotriose] |
